# Data from paper PMC5940854, “Nitrothiophene carboxamides, a novel narrow spectrum antibacterial series: Mechanism of action and Efficacy” (Scientific Reports, 2018).
# Values joined by “and” are separate entries in the source; they are usually repeats but may differ in a detail not shown here. Identical values can stand only once.
# Key:
# [1] = test system: Klebsiella pneumoniae ATCC13883; experiment: MIC, Klebsiella pneumoniae; format: cell-based
# Experimental: (§1) The inoculum used for all the experiments is derived from a single seed lot that is maintained as glycerol stocks at −80 °C and are sub cultured on LB plate for isolated colonies. Single colony of each strain is grown in M9 medium. All test compound stocks and dilutions are prepared in DMSO. Serial two-fold dilutions of compounds are prepared separately, with the concentrations ranging from 2 mg/mL to 0.015 mg/mL. To 150 µl (3–7 × 10^5 CFU/ml) of bacterial culture in 96 well microtitre plates, 3 μL compound from each of the dilutions is added to respective wells to obtain final concentrations ranging from 40 µg/mL to 0.3 µg/mL of the test compounds. Media control, culture control and appropriate reference drug controls are included. […] Growth is monitored by checking absorbance at 600 nm (A600). […] The samples from MIC and above concentrations are plated for MBC (Minimum Bactericidal Concentration). The samples are diluted 1:10 and plated on LB agar plates. […] The killing kinetics is determined by enumerating survivors at various time points following compound exposure. E. coli cells (~10^7 CFU/ml; A600 of 0.1) are treated with various concentrations (40 µg/mL to 0.3 µg/mL) of compounds in a 96-well microtitre plate. At various time intervals (0 to 8 h), 30 μl volumes of treated cultures are serially diluted and plated on LB agar plates. […] Data is expressed as the log10 CFU for each drug treatment.
# [2] = test system: E. coli ∆nfsAB & ∆acrB+nfnB; parameters: unit not given beside the values
# Experimental: as §1
# [3] = test system: E. coli clinical isolates; experiment: MIC on panel of E. coli clinical isolates; format: cell-based
# [4] = biological target: T1, AcrB efflux pump in E. coli BW25113 (Escherichia coli, UniProt P31224); experiment: Nile red efflux assay (whole-cell competition); format: cell-based
# T1 construct: endogenous in cells; host or cells: E. coli BW25113 (wild type)
# T1 sequence (P0AE06 25-397): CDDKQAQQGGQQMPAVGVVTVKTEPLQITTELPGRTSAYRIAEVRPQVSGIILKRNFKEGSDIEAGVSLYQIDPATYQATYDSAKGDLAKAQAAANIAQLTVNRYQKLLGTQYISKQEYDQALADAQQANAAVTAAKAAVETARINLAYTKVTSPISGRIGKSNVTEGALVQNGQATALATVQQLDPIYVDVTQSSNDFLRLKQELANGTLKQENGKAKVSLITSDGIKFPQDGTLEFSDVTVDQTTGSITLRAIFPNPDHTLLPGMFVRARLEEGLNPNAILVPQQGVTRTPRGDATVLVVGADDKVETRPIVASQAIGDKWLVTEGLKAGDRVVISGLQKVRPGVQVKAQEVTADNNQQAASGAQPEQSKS
# T1 sequence (P31224 whole entry): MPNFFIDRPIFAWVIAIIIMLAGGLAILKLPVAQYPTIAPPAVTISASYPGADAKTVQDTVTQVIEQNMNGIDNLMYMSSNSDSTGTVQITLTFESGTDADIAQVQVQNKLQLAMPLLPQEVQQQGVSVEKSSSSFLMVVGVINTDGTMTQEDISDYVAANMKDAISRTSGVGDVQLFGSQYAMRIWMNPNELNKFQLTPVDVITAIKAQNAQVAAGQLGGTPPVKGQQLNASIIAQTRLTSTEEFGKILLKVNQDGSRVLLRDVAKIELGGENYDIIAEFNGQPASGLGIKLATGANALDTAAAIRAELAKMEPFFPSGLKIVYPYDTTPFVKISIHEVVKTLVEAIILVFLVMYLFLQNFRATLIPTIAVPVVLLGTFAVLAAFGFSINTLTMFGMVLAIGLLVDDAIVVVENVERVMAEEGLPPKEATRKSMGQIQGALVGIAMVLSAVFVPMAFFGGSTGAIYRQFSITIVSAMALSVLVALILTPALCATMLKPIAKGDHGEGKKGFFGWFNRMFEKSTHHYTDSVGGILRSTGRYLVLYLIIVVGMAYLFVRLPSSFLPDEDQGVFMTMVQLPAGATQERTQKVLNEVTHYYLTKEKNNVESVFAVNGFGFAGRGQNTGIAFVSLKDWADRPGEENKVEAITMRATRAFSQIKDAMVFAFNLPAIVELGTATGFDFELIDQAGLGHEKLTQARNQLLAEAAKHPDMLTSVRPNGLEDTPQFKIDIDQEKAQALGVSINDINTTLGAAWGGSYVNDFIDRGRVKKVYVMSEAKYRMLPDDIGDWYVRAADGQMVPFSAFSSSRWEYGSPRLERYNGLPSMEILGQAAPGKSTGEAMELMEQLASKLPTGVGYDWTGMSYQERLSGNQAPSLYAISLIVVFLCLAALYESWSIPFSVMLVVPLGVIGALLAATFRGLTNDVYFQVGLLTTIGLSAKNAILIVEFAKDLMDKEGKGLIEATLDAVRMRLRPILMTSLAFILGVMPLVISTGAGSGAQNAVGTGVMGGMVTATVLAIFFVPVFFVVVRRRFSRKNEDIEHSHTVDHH
# T1 sequence (P02930 23-493, further chain): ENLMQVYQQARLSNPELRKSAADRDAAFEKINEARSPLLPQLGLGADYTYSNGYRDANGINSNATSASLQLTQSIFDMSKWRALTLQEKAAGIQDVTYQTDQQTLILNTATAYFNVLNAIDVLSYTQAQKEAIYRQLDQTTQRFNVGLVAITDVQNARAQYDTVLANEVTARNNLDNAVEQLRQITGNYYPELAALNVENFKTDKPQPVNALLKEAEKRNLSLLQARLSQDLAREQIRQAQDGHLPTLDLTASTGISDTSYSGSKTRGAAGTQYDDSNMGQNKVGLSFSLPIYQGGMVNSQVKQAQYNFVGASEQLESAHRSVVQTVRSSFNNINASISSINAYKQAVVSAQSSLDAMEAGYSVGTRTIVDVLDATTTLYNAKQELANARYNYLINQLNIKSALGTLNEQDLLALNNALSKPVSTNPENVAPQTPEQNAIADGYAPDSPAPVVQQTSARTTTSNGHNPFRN
# Experimental: The Nile red assay is adopted from Bohnert et al.[18]. An overnight culture of E. coli strain BW25113 is harvested and is resuspended in 20 mM potassium phosphate buffer (pH 7.0) containing 1 mM MgCl2 (PPB). The cells are adjusted to an A660 of 1.0 in PPB and aliquoted into glass tubes (2 ml each). Carbonylcyanide-m-chlorophenylhydrazone (CCCP; a protonophore that uncouples the electron transport chain and thus inhibits AcrB mediated efflux) is added to a final concentration of 10 µM (5 mM stock solution in 50% DMSO) and incubated for 15 minutes before adding the potential competitor at desired concentrations. Nile red is then added (stock solution of 5 mM in 10% dimethyl formamide-90% ethanol [vol/vol]) to a final concentration of 5 µM. The cell suspension is incubated at room temperature on a shaker for 3 hours. The cells are harvested and resuspended in 2 ml PPB in the presence of the competitor. The cell suspension is aliquoted in a fluorimeter cuvette, to which, 100 µl of 1 M Glucose is added to activate the electron transport chain. The rate of efflux is measured by Tefflux50, it is the time taken for 50% of Nile red to be effluxed out in presence of the compounds. The fluorescence is measured (Excitation 552 nm, Emission 636 nm) for 200 seconds.
smiles,measurement,setting,value
"O=C(Nc1nc(-c2ccc(F)cc2F)cs1)c1ccc([N+](=O)[O-])s1 [compound 12, N-(4-(2,4-difluorophenyl)thiazol-2-yl)-5-nitrothiophene-2-carboxamide]",MIC Klebsiella pneumoniae,[1]; ATCC13883,2.5 µg/mL
same,fold lower potency in comparison to E. coli WT MIC,[1]; WT K. pneumoniae ATCC strain,4-8 fold
same,MIC ∆nfsAB & ∆acrB+nfnB,[2],0.3
same,MIC Range,[3]; 75 E.coli clinical isolates,0.06 to 40 µg/mL
same,MIC50,"[3]; Escherichia coli, 75 E.coli clinical isolates, 50% clinical isolates",2.5 µg/mL
same,MIC90,"[3]; Escherichia coli, 75 E.coli clinical isolates, 90% clinical isolates",10 µg/mL
same,MIC,[3]; strain SEC001,4 µg/mL
same,MIC,[3]; strain SEC002,4 µg/mL
same,MIC,[3]; strain SEC003,4 µg/mL
same,MIC,[3]; strain SEC004,32 µg/mL
same,MIC,[3]; strain SEC005,4 µg/mL
same,MIC,[3]; strain SEC006,4 µg/mL
same,MIC,[3]; strain SEC007,2 µg/mL
same,MIC,[3]; strain SEC008,32 µg/mL
same,MIC,[3]; strain SEC011,2 µg/mL
same,MIC,[3]; strain SEC012,1 µg/mL
same,MIC,[3]; strain SEC013,32 µg/mL
same,MIC,[3]; strain SEC014,2 µg/mL
same,MIC,[3]; strain SEC015,32 µg/mL
same,MIC,[3]; strain SEC016,2 µg/mL
same,MIC,[3]; strain SEC017,0.06 µg/mL
same,MIC,[3]; strain SEC018,2 µg/mL
same,MIC,[3]; strain SEC019,2 µg/mL
same,MIC,[3]; strain SEC020,32 µg/mL
same,MIC,[3]; strain SEC021,1 µg/mL
same,MIC,[3]; strain SEC022,2 µg/mL
same,MIC,[3]; strain SEC023,32 µg/mL
same,MIC,[3]; strain SEC024,2 µg/mL
same,MIC,[3]; strain SEC025,2 µg/mL
same,MIC,[3]; strain SEC026,2 µg/mL
same,MIC,[3]; strain SEC028,1 µg/mL
same,MIC,[3]; strain SEC029,2 µg/mL
same,MIC,[3]; strain SEC031,2 µg/mL
same,MIC,[3]; strain SEC032,4 µg/mL
same,MIC,[3]; strain SEC033,2 µg/mL
same,MIC,[3]; strain SEC034,2 µg/mL
same,MIC,[3]; strain SEC035,2 µg/mL
same,MIC,[3]; strain SEC036,32 µg/mL
same,MIC,[3]; strain SEC037,1 µg/mL
same,MIC,[3]; strain SEC038,2 µg/mL
same,MIC,[3]; strain SEC039,2 µg/mL
same,MIC,[3]; strain SEC040,2 µg/mL
same,MIC,[3]; strain SEC041,2 µg/mL
same,MIC,[3]; strain SEC042,4 µg/mL
same,MIC,[3]; strain SEC043,2 µg/mL
same,MIC,[3]; strain SEC044,32 µg/mL
same,MIC,[3]; strain SEC045,2 µg/mL
same,MIC,[3]; strain SEC046,2 µg/mL
same,MIC,[3]; strain SEC047,2 µg/mL
same,MIC,[3]; strain SEC048,32 µg/mL
same,MIC,[3]; strain SEC049,32 µg/mL
same,MIC,[3]; strain SEC050,4 µg/mL
same,MIC,[3]; strain SEC051,4 µg/mL
same,MIC,[3]; strain SEC052,1 µg/mL
same,MIC,[3]; strain SEC053,2 µg/mL
same,MIC,[3]; strain SEC054,2 µg/mL
same,MIC,[3]; strain SEC055,2 µg/mL
same,MIC,[3]; strain SEC057,4 µg/mL
same,MIC,[3]; strain SEC058,4 µg/mL
same,MIC,[3]; strain SEC059,2 µg/mL
same,MIC,[3]; strain SEC060,2 µg/mL
same,MIC,[3]; strain SEC061,2 µg/mL
same,MIC,[3]; strain SEC062,1 µg/mL
same,MIC,[3]; strain SEC063,2 µg/mL
same,MIC,[3]; strain SEC064,4 µg/mL
same,MIC,[3]; strain SEC065,2 µg/mL
same,MIC,[3]; strain SEC067,2 µg/mL
same,MIC,[3]; strain SEC068,4 µg/mL
same,MIC,[3]; strain SEC069,4 µg/mL
same,MIC,[3]; strain SEC070,4 µg/mL
same,MIC,[3]; strain SEC071,2 µg/mL
same,MIC,[3]; strain SEC072,2 µg/mL
same,MIC,[3]; strain SEC073,4 µg/mL
same,MIC,[3]; strain SEC074,2 µg/mL
same,MIC,[3]; strain SEC075,4 µg/mL
same,MIC,[3]; strain SEC076,2 µg/mL
same,MIC,[3]; strain SEC077,2 µg/mL
same,MIC,[3]; strain SEC078,8 µg/mL
same,MIC,[3]; strain SEC079,4 µg/mL
same,MIC,[3]; strain SEC080,4 µg/mL
same,Tefflux50,"[4]; 1µM compound, time for 50% of Nile red to be effluxed, read for 200 seconds",66.41 s
same,Tefflux50,[4]; 9µM compound,67.52 s
same,Tefflux50,[4]; 27µM compound,67.98 s
same,Tefflux50,[4]; 81µM compound,68.06 s
same,Tefflux50,[4]; 100µM compound,68.17 s
same,Tefflux50,[4]; 200µM compound,68.34 s
same,Tefflux50,[4]; 400µM compound,68 s and 68.25 s
same,Concentration of compound required for complete inhibition of Nile red efflux (Tefflux50 >200 seconds),[4]; E. coli BW25113,> 400 µM
